For assay [1], the target named is T1, thrombin (Homo sapiens, UniProt P00734).
T1 construct: panel of serine proteases: uPA, tPA, thrombin, plasmin, FXIIa
The assay can be described thus: in vitro serine protease inhibition profile: thrombin. Type of assay: biochemical.

For assay [2], the system named is ocular tissue damage. As to the kind of experiment: rat dry eye model, ocular surface damage by fluorescein staining. It counts as in vivo. To be noted: dry eye rats. As to the method: (§1) Female Wistar rats (200-300 g, Janvier, Roubaix, France) were kept under standard pathogen-free conditions. Husbandry conditions: room temperature 20-25° C., humidity 50-60% and a day-night cycle of 12 h light/12 h dark. Food and water were available ad libitum. All in vivo manipulations were approved by the Animal Ethical Committee of the University of Antwerp (2013-67) and are in accordance to the ARRIVE guidelines for the use of animals in ophthalmic and vision research.
To remove the exorbital lacrimal gland, animals were anesthetized with an intraperitoneal injection of 25 mg/kg ketamine (Anesketin®, Eurovet, Bladel, Netherlands) and 2.5 mg/kg xylazine (Rompun®, Bayer, Leverkusen, Germany). Routine manipulations (tear collection, fluorescein staining) were performed after induction with 5% isoflurane (Halocarbon®, New Jersey, USA), followed by a maintenance dosage of 1.5%.
(§2) To remove the gland, a small incision was made beneath the right ear. The lacrimal glands of the left eye were kept intact, leaving each animal with its own individual control and eliminating the need for extra control groups. Progression of dry eye was monitored for 24 days and tear volume measurements and fluorescein staining were performed once a week. Tears were collected twice a week.
Sodium-fluorescein (1%, Sigma-Aldrich, Seelze, Germany) in phosphate buffered saline (PBS, Gibco® by LifeTechnologies Europe, Gent, Belgium) was administered topically to the surface of the eye. To avoid false positives, eyes were rinsed after one minute with PBS and excess fluorescein was removed by placing filter paper in the lateral cantus of the eye. The eye was photographed with a microscopic lens (Photo adapter 1.0 MC 80 DX-Axiovert 25 CA, Carl Zeiss AB, Gottingen, Germany) in a darkened room under cobalt blue light. Using the Oxford fluorescein grading scale, scores from 0 to 5 were given to each eye, depending on ocular staining intensity. Semi-quantitative scoring was done in a blind manner by three independent observers. Evaluation of ocular surface damage was performed every week.
(§3) Tear fluid was obtained twice a week. Tear volume and tissue damage was evaluated once a week. Animals were treated with Restasis® (2×/day), UAMC50, UAMC1162, UAMC1169/vehicle (2×/day) for 3 consecutive weeks. Compounds 1, 2 and 4 were formulated as follows: […]

Assay [3] addresses T2, matriptase (Homo sapiens, UniProt Q9Y5Y6).
T2 sequence (Q9Y5Y6 1-855): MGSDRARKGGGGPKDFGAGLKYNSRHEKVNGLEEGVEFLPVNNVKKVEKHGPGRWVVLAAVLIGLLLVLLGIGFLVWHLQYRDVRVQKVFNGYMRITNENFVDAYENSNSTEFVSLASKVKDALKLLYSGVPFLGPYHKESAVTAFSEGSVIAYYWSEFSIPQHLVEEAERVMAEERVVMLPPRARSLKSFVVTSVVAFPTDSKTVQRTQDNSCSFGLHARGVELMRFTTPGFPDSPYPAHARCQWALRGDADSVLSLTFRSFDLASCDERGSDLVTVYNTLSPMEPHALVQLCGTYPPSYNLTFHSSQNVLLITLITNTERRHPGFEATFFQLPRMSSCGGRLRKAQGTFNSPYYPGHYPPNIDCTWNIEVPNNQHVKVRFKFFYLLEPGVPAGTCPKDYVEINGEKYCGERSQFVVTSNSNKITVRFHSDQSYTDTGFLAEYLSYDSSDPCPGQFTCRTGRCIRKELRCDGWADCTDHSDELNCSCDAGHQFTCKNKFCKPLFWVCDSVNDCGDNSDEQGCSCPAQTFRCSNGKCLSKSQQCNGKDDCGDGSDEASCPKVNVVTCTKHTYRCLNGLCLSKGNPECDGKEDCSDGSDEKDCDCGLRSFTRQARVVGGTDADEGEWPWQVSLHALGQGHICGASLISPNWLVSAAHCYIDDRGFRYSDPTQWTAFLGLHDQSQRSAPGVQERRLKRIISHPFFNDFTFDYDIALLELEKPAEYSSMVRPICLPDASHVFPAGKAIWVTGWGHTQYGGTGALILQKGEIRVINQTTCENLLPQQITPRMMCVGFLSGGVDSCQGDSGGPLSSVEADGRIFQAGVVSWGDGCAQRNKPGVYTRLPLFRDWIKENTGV
The assay can be described thus: in vitro serine protease inhibition profile: matriptase. Type of assay: biochemical.

The target of assay [4] is tPA (Homo sapiens, UniProt P00750). The assay can be described thus: in vitro serine protease inhibition profile: tPA. It counts as biochemical.
tPA, sequence (P00750 36-562, species assumed): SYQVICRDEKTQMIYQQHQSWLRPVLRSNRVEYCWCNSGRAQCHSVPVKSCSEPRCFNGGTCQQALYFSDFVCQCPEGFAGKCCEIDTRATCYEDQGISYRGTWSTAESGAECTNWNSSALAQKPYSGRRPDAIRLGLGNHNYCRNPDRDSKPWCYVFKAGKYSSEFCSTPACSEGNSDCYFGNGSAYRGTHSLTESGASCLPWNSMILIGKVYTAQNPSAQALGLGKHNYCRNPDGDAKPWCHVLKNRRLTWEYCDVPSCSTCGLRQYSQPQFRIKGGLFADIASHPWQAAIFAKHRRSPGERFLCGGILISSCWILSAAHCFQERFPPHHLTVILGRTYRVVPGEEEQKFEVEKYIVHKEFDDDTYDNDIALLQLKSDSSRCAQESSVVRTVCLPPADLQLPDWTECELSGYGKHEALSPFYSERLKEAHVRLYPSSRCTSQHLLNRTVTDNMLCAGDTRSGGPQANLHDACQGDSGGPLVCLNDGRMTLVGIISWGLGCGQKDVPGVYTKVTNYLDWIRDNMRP
Assay [5] deals with TNF-α and IL-1α in tear fluid. The assay can be described thus: rat dry eye model, pro-inflammatory cytokines in tear fluid. To be noted: dry eye rats. Type of assay: in vivo. The procedure:
as §1, §2
Tear fluid was collected once a week with 10 μl capillaries (Blaubrand® Intramark, Wertheim, Germany) connected with a flexible tube to a syringe. […]
TNF-α and IL-1α concentrations in tear fluid were measured flow cytometrically (FACS calibur, BD Biosciences), using Cytometric Bead Array (CBA) according to the manufacturers protocol (Rat IL-1α and TNF-α CBA flex sets, BD Biosciences, Erembodegem Belgium.
Tear fluid was obtained twice a week. Tear volume and tissue damage was evaluated once a week. […]

Assay [6] in a line: rat dry eye model, aqueous tear production (phenol red thread). It counts as in vivo. To be noted: dry eye rats, 2 concentrations. As to the method:
as §1, §2
A phenol red thread (Zone Quick®, Menicon Co. Ltd, Nagoya, Japan) was placed in the lateral cantus of the conjunctival fornix for 15 seconds. […] Tear fluid volumes were measured once a week.
as §3

[7] abbreviates: 5 mM formulation, 2x/day, FIG. 4.

Consider `COC(=O)NC(Cc1ccc(NC(=N)N)cc1)P(=O)(Oc1ccccc1)Oc1ccccc1` (stereo not shown) [Compound 1], for which the IC50 in assay [1] is above 2500 nM; in assay [3], 82 nM; in assay [4] it was above 2500 nM. Further, in assay [2] (setting [7]), the “effect on ocular tissue damage” value is given as “no effect”.
With `CC(=O)Nc1ccc(OP(=O)(Oc2ccc(NC(C)=O)cc2)C(Cc2ccc(NC(=N)N)cc2)NC(=O)OCc2ccccc2)cc1` (stereo not shown) [Compound 4], the IC50 is 257 nM in assay [1], 3 nM in assay [3] and above 2500 nM in assay [4]. Also, the “anti-inflammatory effect on IL-1α and TNF-α in tear fluid” value in assay [5] (5 mM) was “significant anti-inflammatory effect”; in assay [5] (two concentrations, compared with Restasis, FIGS. 6 and 7) it was “overall stronger anti-inflammatory effect and faster onset of action effect than Restasis©”. Moreover, the “effect on ocular tissue damage” value in assay [2] (setting [7]) is “superior effect on ocular tissue damage”; in assay [2] (lower dose (500 μM), day 21), “failed to provide an effect on day 21”. In assay [2] (follow-up experiments, 5 mM and 500 μM, vs untreated, vehicle, Restasis, FIG. 5), the tissue damage scores result was “lower tissue damage scores”. Also, the “effect on tear volume” value in assay [6] is “no significant effects have been observed on tear volume”.

These data come from patent US11638712B2, “Bis(acetamidophenyl) guanidinophenylethylphosphonates for use in the prevention and/or treatment of PAR-related diseases” (Universiteit Antwerpen, priority 2016, dated 2023).
